Reference: PubChem BioAssay AID330 (DTP/NCI, 2004)
Where “and” joins values, the source holds several entries; their conditions need not be identical. Equal entries are not always repeated. Inconclusive results and toxic doses are left out. How the source made its calls: active means survival T/C of 150% or more; inactive means T/C below 125% in these data. Square brackets hold non-standard residues; d marks the D form. Peptide text beside a SMILES is read from it. ξ: configuration not given here. ξI = CCC(C)C(N)C(=O)O

Test system: P388 leukemia ip, CD2F1 mice, survival T/C
Test: NCI In Vivo Anticancer Drug Screen. Data for tumor model P388 Leukemia (intraperitoneal) in CD2F1 (CDF1) mice
Conditions: endpoint: median survival time, higher = longer survival
In short: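 Mice carrying the transplanted tumor received test compound or vehicle. Survival was recorded in each group, and the value is the treated-group measurement divided by that of the vehicle-treated control group.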

[1] = dose: 60.0 mg/kg/injection, schedule: Q01DX005 (ip), vehicle: Klucel (hydroxypropylcellulose) (HPC)
[2] = dose: 120.0 mg/kg/injection, schedule: Q01DX005 (ip), vehicle: Klucel (hydroxypropylcellulose) (HPC)
[3] = dose: 240.0 mg/kg/injection, schedule: Q01DX005 (ip), vehicle: Klucel (hydroxypropylcellulose) (HPC)
[4] = dose: 50.0 mg/kg/injection, schedule: Q01DX009 (ip), vehicle: saline
[5] = dose: 100.0 mg/kg/injection, schedule: Q01DX009 (ip), vehicle: saline
[6] = dose: 12.5 mg/kg/injection, schedule: Q01DX005 (ip), vehicle: Klucel (hydroxypropylcellulose) (HPC)
[7] = dose: 25.0 mg/kg/injection, schedule: Q01DX005 (ip), vehicle: Klucel (hydroxypropylcellulose) (HPC)
[8] = dose: 50.0 mg/kg/injection, schedule: Q01DX005 (ip), vehicle: Klucel (hydroxypropylcellulose) (HPC)
[9] = dose: 200.0 mg/kg/injection, schedule: Q01DX005 (ip), vehicle: Klucel (hydroxypropylcellulose) (HPC)
[10] = dose: 50.0 mg/kg/injection, schedule: Q01DX005 (ip), vehicle: saline with Tween-80
[11] = dose: 50.0 mg/kg/injection, schedule: Q01DX001 (ip), vehicle: saline with Tween-80
[12] = dose: 100.0 mg/kg/injection, schedule: Q01DX001 (ip), vehicle: saline with Tween-80
[13] = dose: 200.0 mg/kg/injection, schedule: Q01DX001 (ip), vehicle: saline with Tween-80
[14] = dose: 100.0 mg/kg/injection, schedule: Q01DX005 (ip), vehicle: saline with Tween-80
[15] = dose: 200.0 mg/kg/injection, schedule: Q01DX005 (ip), vehicle: saline with Tween-80
[16] = dose: 100.0 mg/kg/injection, schedule: Q01DX005 (ip), vehicle: Klucel (hydroxypropylcellulose) (HPC)
[17] = dose: 50.0 mg/kg/injection, schedule: Q01DX005 (ip), vehicle: saline
[18] = dose: 100.0 mg/kg/injection, schedule: Q01DX005 (ip), vehicle: saline

Measured: T/C

c1ccc2c(c1)[nH]c1c3ccccc3sc21
inactive: [1] 106 % of control | [2] 107 % of control | [3] 105 % of control

COc1cc(OC)c(/C=C\c2ccnc3ccccc23)c(OC)c1
inactive: dose: 50.0 mg/kg/injection, schedule: Q01DX009 (ip), vehicle: saline with Tween-80 97 % of control | dose: 100.0 mg/kg/injection, schedule: Q01DX009 (ip), vehicle: saline with Tween-80 90 % of control | dose: 200.0 mg/kg/injection, schedule: Q01DX009 (ip), vehicle: saline with Tween-80 104 % of control

CC(=O)Nc1cc(NC(C)=O)c(N=O)c(NC(C)=O)n1
inactive: [4] 100 % of control | [5] 99 % of control | dose: 200.0 mg/kg/injection, schedule: Q01DX009 (ip), vehicle: saline 91 % of control

COc1ccc(/C=C2/C(=O)N(c3ccccc3)N=C2C)cc1OC
inactive: [1] 101 % of control | [2] 93 % of control | [3] 90 % of control

CCCCc1ccc2nc(C)cc(N/N=C/c3ccc4c(c3)OCO4)c2c1
inactive: [6] 94 % of control | [7] 100 % of control | [8] 92 % of control and 94 % of control | [9] 92 % of control

CN(C)N=Nc1ccc(C(N)=O)cc1
inactive: dose: 12.5 mg/kg/injection, schedule: Q01DX009 (ip), vehicle: saline 101 % of control and 103 % of control and 93 % of control | dose: 25.0 mg/kg/injection, schedule: Q01DX009 (ip), vehicle: saline 98 % of control and 99 % of control and 100 % of control | [4] 98 % of control and 107 % of control and 91 % of control | [5] 111 % of control and 96 % of control

CC(C)SC(=O)C[Si](C)(C)C
inactive: dose: 50.0 mg/kg/injection, schedule: Q04DX003 (ip), vehicle: saline with Tween-80 98 % of control and 101 % of control | dose: 100.0 mg/kg/injection, schedule: Q04DX003 (ip), vehicle: saline with Tween-80 101 % of control and 104 % of control | dose: 200.0 mg/kg/injection, schedule: Q04DX003 (ip), vehicle: saline with Tween-80 103 % of control and 105 % of control | dose: 400.0 mg/kg/injection, schedule: Q04DX003 (ip), vehicle: saline with Tween-80 98 % of control

Cc1cc(Br)c2nsnc2c1[N+](=O)[O-]
inactive: [10] 122 % of control

Cc1cc(NC(=O)C(=O)CC(=O)c2ccc(Cl)s2)no1
inactive: dose: 100.0 mg/kg/injection, schedule: Q04DX002 (ip), vehicle: saline with Tween-80 99 % of control | dose: 200.0 mg/kg/injection, schedule: Q04DX002 (ip), vehicle: saline with Tween-80 104 % of control | dose: 400.0 mg/kg/injection, schedule: Q04DX002 (ip), vehicle: saline with Tween-80 107 % of control

CC1CCCCC1=C(C#N)C#N (stereo not drawn)
inactive: dose: 12.5 mg/kg/injection, schedule: Q01DX009 (ip), vehicle: other 95 % of control | dose: 25.0 mg/kg/injection, schedule: Q01DX009 (ip), vehicle: other 100 % of control

COc1ccc(C(CC(=O)O)CC(=O)N(CCCl)CCCl)cc1C (stereo not drawn)
inactive: dose: 100.0 mg/kg/injection, schedule: Q04DX003 (ip), vehicle: saline 102 % of control | dose: 200.0 mg/kg/injection, schedule: Q04DX003 (ip), vehicle: saline 100 % of control | dose: 400.0 mg/kg/injection, schedule: Q04DX003 (ip), vehicle: saline 100 % of control

CC(C)C1SCCS1
inactive: [11] 102 % of control | [12] 106 % of control | [13] 99 % of control

O=P1(c2ccccc2)Cc2ccccc2N1Cc1ccccc1 (stereo not drawn)
inactive: [10] 100 % of control | [14] 103 % of control | [15] 104 % of control

CCC(C)C(N)C(=O)NCC(=O)O (stereo not drawn) (H-[ξI]-Gly-OH)
inactive: dose: 60.0 mg/kg/injection, schedule: Q01DX005 (ip), vehicle: saline 96 % of control | dose: 120.0 mg/kg/injection, schedule: Q01DX005 (ip), vehicle: saline 96 % of control | dose: 240.0 mg/kg/injection, schedule: Q01DX005 (ip), vehicle: saline 96 % of control

Cc1ccc(S(=O)(=O)NC(CCCNC(=O)OCc2ccccc2)C(=O)O)cc1 (stereo not drawn)
inactive: [8] 100 % of control | [16] 99 % of control | [9] 96 % of control

C1CCCC2(CCC1)OCCO2
inactive: dose: 100.0 mg/kg/injection, schedule: Q04DX003 (ip), vehicle: Klucel (hydroxypropylcellulose) (HPC) 106 % of control | dose: 200.0 mg/kg/injection, schedule: Q04DX003 (ip), vehicle: Klucel (hydroxypropylcellulose) (HPC) 102 % of control | dose: 400.0 mg/kg/injection, schedule: Q04DX003 (ip), vehicle: Klucel (hydroxypropylcellulose) (HPC) 95 % of control

CNCC(C(=O)c1ccccc1)C(=O)c1ccccc1
inactive: [10] 95 % of control | [14] 101 % of control | [15] 110 % of control

C1=C(/c2ccccc2)NCCN=C(c2ccccc2)CS/1
inactive: [10] 104 % of control | [14] 101 % of control | [15] 101 % of control

CC(=O)OCC1OC(n2cnc3c(Cl)nc(Cl)nc32)C(OC(C)=O)C1OC(C)=O (stereo not drawn)
inactive: [8] 102 % of control | [16] 102 % of control | [9] 115 % of control

COc1cc(C(O)C(CO)Oc2c(OC)cc(C3OCC4C(c5cc(OC)c(O)c(OC)c5)OCC34)cc2OC)ccc1O (stereo not drawn)
inactive: dose: 5.0 mg/kg/injection, schedule: Q01DX005 (ip), vehicle: sodium bicarbonate 107 % of control | dose: 10.0 mg/kg/injection, schedule: Q01DX005 (ip), vehicle: sodium bicarbonate 109 % of control | dose: 20.0 mg/kg/injection, schedule: Q01DX005 (ip), vehicle: sodium bicarbonate 106 % of control | dose: 40.0 mg/kg/injection, schedule: Q01DX005 (ip), vehicle: sodium bicarbonate 100 % of control

C=CCn1/c(=N\NC(=O)c2ccncc2)sc2ccccc21
inactive: dose: 6.25 mg/kg/injection, schedule: Q01DX009 (ip), vehicle: Klucel (hydroxypropylcellulose) (HPC) 114 % of control | dose: 12.5 mg/kg/injection, schedule: Q01DX009 (ip), vehicle: Klucel (hydroxypropylcellulose) (HPC) 100 % of control | dose: 25.0 mg/kg/injection, schedule: Q01DX009 (ip), vehicle: Klucel (hydroxypropylcellulose) (HPC) 103 % of control

COc1cc2c(cc1OC)C(CO)C1c3cc4c(cc3CCN1C2)OCO4 (stereo not drawn)
inactive: dose: 50.0 mg/kg/injection, schedule: Q04DX003 (ip), vehicle: distilled water + Tween-80 98 % of control | dose: 100.0 mg/kg/injection, schedule: Q04DX003 (ip), vehicle: distilled water + Tween-80 98 % of control | dose: 200.0 mg/kg/injection, schedule: Q04DX003 (ip), vehicle: distilled water + Tween-80 96 % of control | dose: 400.0 mg/kg/injection, schedule: Q04DX003 (ip), vehicle: distilled water + Tween-80 96 % of control

CC1=C(O)C(=O)C(c2c(C)cc(C)c(Br)c2C)=C(O)C1=O
inactive: dose: 6.25 mg/kg/injection, schedule: Q01DX005 (ip), vehicle: Klucel (hydroxypropylcellulose) (HPC) 100 % of control and 104 % of control | [6] 104 % of control and 117 % of control and 118 % of control | [7] 104 % of control and 117 % of control | [8] 116 % of control and 94 % of control

Cc1ccc(C)n1-c1ccsc1C(=O)NNC(=O)CCl
inactive: dose: 7.5 mg/kg/injection, schedule: Q01DX005 (ip), vehicle: Klucel (hydroxypropylcellulose) (HPC) 101 % of control | dose: 15.0 mg/kg/injection, schedule: Q01DX005 (ip), vehicle: Klucel (hydroxypropylcellulose) (HPC) 99 % of control | dose: 30.0 mg/kg/injection, schedule: Q01DX005 (ip), vehicle: Klucel (hydroxypropylcellulose) (HPC) 100 % of control

CCOC(=O)c1c[nH]c2c(=O)c3cc(C)ccc3sc2c1=O
inactive: [11] 95 % of control | [12] 93 % of control | [13] 87 % of control

O=C(O)CCSSCCCCS(=O)O
inactive: [17] 114 % of control | [18] 114 % of control | dose: 200.0 mg/kg/injection, schedule: Q01DX005 (ip), vehicle: saline 100 % of control

C1COCCOCCNCCOCCOCCN1
inactive: [17] 95 % of control | [18] 98 % of control
